Measured values as given in patent US11801309B2, “Carbohydrate-functionalized nanoparticles and uses thereof” (VIRGINIA COMMONWEALTH UNIVERSITY INTELLECTUAL PROPERTY …, priority 2016, dated 2023).

B1: Evolocumab (antibody, chains of the INN, looked up, V domains shown)
VH: EVQLVQSGAEVKKPGASVKVSCKASGYTLTSYGISWVRQAPGQGLEWMGWVSFYNGNTNYAQKLQGRGTMTTDPSTSTAYMELRSLRSDDTAVYYCARGYGMDVWGQGTTVTVSS
VL: ESALTQPASVSGSPGQSITISCTGTSSDVGGYNSVSWYQQHPGKAPKLMIYEVSNRPSGVSNRFSGSKSGNTASLTISGLQAEDEADYYCNSYTSTSMVFGGGTKLTVL

Legend:
[1] = tested on: LXR target genes (FAS and SREBP1) in hepatocytes; assay: Expression of LXR target genes in hepatocytes (QPCR); type: cell-based, mouse; settings: 0.2 μM, 24 h
Experimental: FIG. 6A-6D. mDNP-LXR-L delivered LXR ligand appropriately increases gene expression leading to increased FC efflux. FIGS. 6A and 6B: MPMs (FIG. 6A) or Primary hepatocytes (FIG. 6B) were plated in 6-well culture dishes and incubated with either LXR ligand T0901317 or mDNP or mDNP-LXR-L (0.2 μM) for 24 h; untreated cells were used as Controls. Expression of LXR target genes (ABCA1 and ABCG1 in MPMs and FAS and SREBP1 in hepatocytes) was evaluated by QPCR using total RNA as described under “Methods”. Data (Mean±SD, n=3) are expressed as fold increase over Controls. FIG. 6C: MPMs were plated in 6-well plates were exposed to either LXR ligand T0901317 or mDNP or mDNP-LXR-L (0.2 μM) for 24 h. Cells were washed once with cold PBS and harvested in cold buffer on ice as described under “Methods”. Following disruption of cells by sonication and removal of cell debris, CEH activity was measured using a radiometric assay. CEH activity (Mean±SD, n=3) is expressed as % untreated Controls. FIG. 6D: MPMs, plated in 24-well plate, were loaded and labeled with [^3H]-cholesterol as described under “Methods”. During the 24 h equilibration, cells were exposed to either LXR ligand T0901317 or mDNP or mDNP-LXR-L (0.2 μM). FC efflux to medium containing 10% FBS was monitored for 8 and 24 h. Data (Mean±SD, n=6) are expressed as % efflux. *P<0.05 and NS—not significant. […]

[2] = tested on: atherosclerotic plaque volume in patients; settings: randomized controlled trial; cited from earlier work

Molecule | expression of FAS and SREBP1 [1] | decrease in atheroma volume [2]
O=S(=O)(c1ccccc1)N(CC(F)(F)F)c1ccc(C(O)(C(F)(F)F)C(F)(F)F)cc1 [free LXR-L, T0901317] | significant increase | 
B1 |  | 0.95%
